Test results as given in patent US10463667B2 (Incyte Corporation, priority 2007, dated 2019).

Experiments:
[1] = target: human JAK1 (a.a. 837-1142) catalytic domain (Homo sapiens, UniProt P23458); assay: In vitro JAK kinase assay (HTRF), JAK1
[2] = Intrinsic clearance assay (human liver microsomes); assay type: in vitro ADME; conditions: both sexes; 1 μM compound, human liver microsomes 0.5 mg/mL protein, 37° C., 1 mM NADPH; read-out: Human Intrinsic CL (converted)
Procedure: Intrinsic Clearance Assay
The disappearance of the test compound was monitored by LC/MS at […] The slope of decline in compound concentration was used to calculate the human intrinsic clearance by employing standard methods reported in the literature.

[3] = target: human Jak3 (a.a. 781-1124) catalytic domain (Homo sapiens, UniProt P52333); assay: In vitro JAK kinase assay (HTRF), JAK3
[4] = target: T1, human Jak2 (a.a. 828-1132) catalytic domain (Homo sapiens, UniProt O60674); assay: In vitro JAK kinase assay (HTRF), JAK2; assay type: biochemical; conditions: 30 μM ATP; ranges = lowest and highest values of the stereoisomers tested; read-out: JAK 2 IC50
T1 construct: Jak2 (a.a. 828-1132); His tag (N); made in house; host or cells: insect cells (baculovirus)
T1 sequence (O60674 828-1132): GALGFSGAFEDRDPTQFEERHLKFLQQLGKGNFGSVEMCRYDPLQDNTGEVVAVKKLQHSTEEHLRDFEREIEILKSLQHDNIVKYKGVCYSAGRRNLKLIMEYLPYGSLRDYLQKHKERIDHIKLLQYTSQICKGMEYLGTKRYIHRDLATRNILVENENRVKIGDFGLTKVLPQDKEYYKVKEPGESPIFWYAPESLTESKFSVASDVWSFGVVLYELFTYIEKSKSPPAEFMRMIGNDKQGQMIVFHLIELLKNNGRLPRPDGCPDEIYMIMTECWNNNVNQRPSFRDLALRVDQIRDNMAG

Sequence of human JAK1 (a.a. 837-1142) catalytic domain (P23458 849-1154): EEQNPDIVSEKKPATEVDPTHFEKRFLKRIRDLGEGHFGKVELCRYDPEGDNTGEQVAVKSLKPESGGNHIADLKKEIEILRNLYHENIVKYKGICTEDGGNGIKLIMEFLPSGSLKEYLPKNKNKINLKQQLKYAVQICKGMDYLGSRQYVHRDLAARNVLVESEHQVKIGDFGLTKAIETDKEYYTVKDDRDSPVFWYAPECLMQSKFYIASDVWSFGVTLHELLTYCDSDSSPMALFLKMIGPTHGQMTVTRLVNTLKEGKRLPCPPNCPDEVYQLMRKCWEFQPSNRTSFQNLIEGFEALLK
Sequence of human Jak3 (a.a. 781-1124) catalytic domain (P52333 781-1124): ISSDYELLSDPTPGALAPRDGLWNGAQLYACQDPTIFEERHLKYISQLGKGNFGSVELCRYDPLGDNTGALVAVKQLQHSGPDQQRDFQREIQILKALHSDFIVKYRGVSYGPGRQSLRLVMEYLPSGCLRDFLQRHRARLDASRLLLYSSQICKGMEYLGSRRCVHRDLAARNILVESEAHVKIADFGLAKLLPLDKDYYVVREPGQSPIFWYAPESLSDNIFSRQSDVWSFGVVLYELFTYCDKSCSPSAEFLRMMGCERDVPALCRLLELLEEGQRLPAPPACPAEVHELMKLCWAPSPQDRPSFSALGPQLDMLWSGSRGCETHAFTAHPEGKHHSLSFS

Structure (SMILES)	IC50 [1]	CLint scaled at 1 μM [2]	IC50 [3]	IC50 [4]
N#CCC(C1CCC(=O)C1)n1cc(-c2ncnc3[nH]ccc23)cn1 (stereo not shown) [Metabolite 3, 3-(4-(7H-pyrrolo[2,3-d]pyrimidin-4-yl)-1H-pyrazol-1-yl)-3-(3-oxycyclopentyl)propanenitrile]	2.7 to 12 nM	< 9.5 mL/min/kg	11 to 41 nM	2.1 to 5.9 nM
N#CCC(C1CCC(O)C1)n1cc(-c2ncnc3[nH]ccc23)cn1 (stereo not shown) [Metabolite 1, 3-(4-(7H-pyrrolo[2,3-d]pyrimidin-4-yl)-1H-pyrazol-1-yl)-3-(3-hydroxycyclopentyl)propanenitrile]	2.5 to 12 nM	< 8.33 mL/min/kg	8.3 to 45 nM	0.7 to 2.5 nM
N#CCC(C1CCCC1O)n1cc(-c2ncnc3[nH]ccc23)cn1 (stereo not shown) [Metabolite 2, 3-(4-(7H-pyrrolo[2,3-d]pyrimidin-4-yl)-1H-pyrazol-1-yl)-3-(2-hydroxycyclopentyl)propanenitrile]	3 to 15 nM	< 8.33 mL/min/kg	17 to 30 nM	2 to 2.8 nM
N#CC[C@H](C1CCCC1)n1cc(-c2ncnc3[nH]ccc23)cn1 [Compound 1, (R)-3-(4-(7H-pyrrolo[2,3-d]pyrimidin-4-yl)-1H-pyrazol-1-yl)-3-cyclopentylpropanenitrile, reference compound]	–	11.3 mL/min/kg	–	–
